Experiments:
[1] = tested on: Porphyromonas gingivalis LPS (P.g-LPS) on RAW264.7 macrophage-like cells, ccl2; test: LPS inactivation: ccl2 secretion of RAW264.7 cells (ELISA); format: cell-based, mouse
Method: (§1) As a medium, RPMI 1640 medium supplemented with 10% FBS (Fetal Bovine Serum) (Biological industries, Haemek, Israel), 1% antibiotic and 1% L-glutamine was used. In each well of a 24-well plate, 400 μl of the medium was placed, and 100,000 cells/well of mouse-derived RAW264.7 macrophage-like cells were inoculated thereto.
(§2) The bacteriocin Kog1 or Kog2, which was the same as in Example 1, was incubated in an Eppendorf tube under each of the following 4 conditions together with Porphyromonas gingivalis LPS (manufactured by InvivoGen) (hereinafter referred to as P.g-LPS) and the same medium as described above, at 37° C. under a gas phase of 5% CO2 for 2 hours: (1) 100 ng/ml P.g-LPS positive control; (2) 100 ng/ml P.g-LPS+5 μM Kog1 or Kog2; (3) 100 ng/ml P.g-LPS+10 μM Kog1 or Kog2; (4) 100 ng/ml P.g-LPS+20 μM Kog1 or Kog2.
(§3) The above-described medium placed in each well of the 24-well plate was removed using a pipetteman, and the medium in the Eppendorf tube for each of the 4 conditions described above was placed in the plate, followed by culturing the cells in the well plate at 37° C. under a gas phase of 5% CO2 for 12 hours. Thereafter, the culture supernatant was collected, and the amount of a chemokine ccl2 or the amount of a cytokine TNF-α secreted into the medium was quantified by the ELISA method by measuring the absorbance at 450 nm using a microplate reader. Since both ccl2 and TNF-α are involved in formation of inflammation, analysis of the relationship between the endotoxin LPS and the bacteriocins Kog1 and Kog2 is possible.

[2] = tested on: Porphyromonas gingivalis Hudoi001 strain; test: Antimicrobial activity against Porphyromonas gingivalis Hudoi001; format: cell-based; conditions: not shown in the figures
Method: The Candida albicans GDH18 strain was precultured using SD medium (Difco) at 37° C. for 24 hours under aerobic conditions. The Streptococcus sobrinus B-13 strain, Streptococcus mutans NCTC10449 strain and Streptococcus mutans Ingbritt strain were precultured using TSB medium (Difco) supplemented with 5% yeast extract (Difco) at 37° C. for 24 hours under aerobic conditions. The Porphyromonas gingivalis Hudoi001 strain and Aggregatibacter actinomycetemcomitans Hudoe001 strain were precultured using BHI medium (Difco) supplemented with hemin (5 mg/L) and vitamin K3 (1 mg/L) at 37° C. for 96 hours under anaerobic conditions with Anaero Pack System (Mitsubishi Gas Chemical Company, Inc.).
After the culture, the cells of the Candida, cariogenic bacteria and periodontal disease bacteria were collected by centrifugation at 1000×g, and washed twice with 1 mM phosphate buffer (pH 6.8). The cells were then suspended such that the final concentration was 1×10^8 cfu/ml or 1×10^7 cells/m. For suspension of the Streptococcus strains, ultrasonic treatment was also carried out.
That is, it is assumed that, in Examples described in Patent Literature 1, the Lactobacillus rhamnosus KO3 strain expressed Kog1 and Kog2, and the expressed Kog1 and Kog2 exerted antimicrobial activity against the Porphyromonas gingivalis Hudoi001 strain. […]

MC3T3-E1 cells = test: Differentiation into osteoblasts: Type-I collagen expression by real-time quantitative RT-PCR; format: cell-based, mouse
Method: MC3T3-E1 cells, which are mouse-derived osteoblast-like cells, were used. The MC3T3-E1 cells were cultured in α-modified Eagle's Medium (α-MEM) supplemented with 10% FBS (Biological industries, Haemek, Israel), L-glutamine, antibiotic mixture (Invitrogen), 50 μg/ml ascorbic acid (Sigma), and 0 nM, 250 nM, 500 nM or 1000 nM Kog2, at 37° C. under 5% CO2 on plastic or titanium. From the thus cultured MC3T3-E1 cells, total RNA was extracted using TRIzol reagent (Invitrogen), and cDNA was then prepared using ReverTra Ace reverse transcriptase (Toyobo Co., Ltd.). Subsequently, the prepared cDNA was used for analyzing expression of Type-I collagen, which is a differentiation marker for osteoblasts, and of β-actin, which is an endogenous control, by real-time quantitative RT-PCR. In the real-time quantitative RT-PCR, Type-I collagen was analyzed using the forward primer shown in SEQ ID NO: 8, the reverse primer shown in SEQ ID NO: 9 and the probe shown in SEQ ID NO: 10. β-actin was analyzed using the forward primer shown in SEQ ID NO: 11, the reverse primer shown in SEQ ID NO: 12, and the probe shown in SEQ ID NO: 13.

[3] = tested on: Porphyromonas gingivalis LPS (P.g-LPS) on RAW264.7 macrophage-like cells, TNF-α; test: LPS inactivation: TNF-α secretion of RAW264.7 cells (ELISA); format: cell-based
Method: as §1, §2, §3

[4] = 100 ng/ml P.g-LPS + Kog2 above a certain level, as amount added increases
[5] = 100 ng/ml P.g-LPS + small amount of Kog2 (5 μM)

Kog2: peptide having the amino acid sequence shown in SEQ ID NO: 2, bacteriocin of Lactobacillus rhamnosus, synthesized by the tea-bag method (MTKVRSSRLRPLTLRLLSAPARAQFLTIACRAILRYDLINS; listed as Lactobacillus rhamnosus)
amount of the chemokine ccl2 secreted [1, 4]: decreases | amount of the chemokine ccl2 secreted [1, 5]: increases | antimicrobial activity [2]: capable of exerting antimicrobial activity | value of Type I collagen/β-actin versus no Kog2 added (MC3T3-E1 cells; Kog2 at 250 nM vs ctrl): 3 times | concentration that best promotes differentiation into osteoblasts (MC3T3-E1 cells; tested 0, 250, 500, 1000 nM): about 250 nM | amount of the cytokine TNF-α secreted [3, 4]: decreases | amount of the cytokine TNF-α secreted [3, 5]: increases
